Reference: patent US20190099394A1, “METHODS OF IMPROVING MOTOR FUNCTION USING KETONE SUPPLEMENTATION” (priority 2016, published 2019)

Legend:
WAG/Rij rats = assay: accelerated rotarod test, WAG/Rij rats; assay type: in vivo, rat; settings: 2.5 g/kg total oral gavage daily for 7 days, about 45 minutes after treatment, FIG. 6 and FIG. 7
Method: WAG/Rij rats were first acclimated to oral gavage with administration of tap water once daily for a period of 3 days. About 45 minutes after the water gavage on the third day, the animals performed the accelerated rotarod test to establish a baseline. After three trials on the rotarod, blood samples were taken to measure baseline glucose and ketone body levels (blood samples were collected about 60 minutes after the gavage).
One day later, the rats were divided into 6 groups, and given an oral gavage supplement selected from water, the ketone ester 1,3-butanediol-acetoacetate diester (KE), the ketone ester with medium chain triglyceride (KEMCT), the ketone salt β-hydroxybutyrate mineral salt (KS), the ketone salt with medium chain triglyceride (KSMCT), or a combination of the ketone ester and the ketone salt (KEKS) (Table 3). Supplements containing the ketone ester or the ketone salt alone were provided at a dose of 2.5 g/kg of body weight. For supplements containing two components (e.g., a ketone ester with MCT, a ketone salt with MCT, a ketone ester with a ketone salt), each component was provided at a dose of 1.25 g/kg of body weight (for a total dosage of 2.5 g/kg). The animals were treated every day for 7 days.
About 45 minutes after the 7th treatment, the rats were evaluated on the accelerated rotarod test. […]

Sprague-Dawley rats = assay: accelerating rotarod test, four month old Sprague-Dawley rats; assay type: in vivo, rat; settings: for motor function (accelerating rotarod) compared to the control group: 5 g/kg once daily oral gavage or diet, at both 24 hours and 7 days after dietary treatment, FIG. 1; for time able to remain on the rotarod relative to controls fed a standard diet only: 24 hours and 7 days, FIG. 2
From the text: Four month old Sprague-Dawley rats were first acclimated to oral gavage with administration of tap water once daily for a period of 5 days. The rats were then divided into 5 groups, and fed either a standard diet (SD), a ketogenic diet (KD), or a standard diet supplemented with a once daily oral gavage of a ketone supplement (Table 1). The ketone supplement was selected from the ketone ester 1,3-butanediol-acetoacetate diester (SD+KE), the ketone salt β-hydroxybutyrate mineral salt (SD+KS), or β-hydroxybutyrate mineral salt and a medium chain triglyceride (SD+KSMCT). Ketone supplements were provided at a dose of 5 g/kg of body weight. Each group of animals was maintained on the respective diets for 7 days. The animals were evaluated for motor performance prior to the beginning of dietary treatment, 24 hours after treatment, and after 7 days of dietary treatment.
Motor performance was evaluated using the accelerating rotarod test on a Rota Rod
Rotamex 5 (Columbus Instruments). The rats were placed on the rod of the accelerating rotarod and the time the animals remained on the rod was measured; the rotarod was set to accelerate to 40 rpm over 180 seconds. Prior to the administration of a test, animals were trained on the rotarod for 5 consecutive days. Each day of training consisted of 3 trials, with a 2 minute rest period between each trial. Animals were placed on the rotarod and timed until they fell from the rotating rod.
The ketone ester, 1,3-butanediol-acetoacetate diester, was synthesized as previously described (Agostino et al., Am J Physiol; 304(10): R829-R836 (2013)). The ketone salt, β-hydroxybutyrate mineral salt (Na^+/K^+-βHB mineral salt) was mixed into a 50% solution by adding approximately 375 mg/g of pure βHB with 125 mg/g of Na^+/K^+. Accordingly, each dose of the mineral salt was equal to about 1000-1500 mg of βHB, depending on the weight of the animal. Both the ketone ester and the ketone salt were developed and synthesized in collaboration with SavInd, Inc. Pharmaceutical grade medium chain triglyceride (MCT) oil (about 65% caprylic triglyceride) was purchased from Now Foods (Bloomingdale, Ill., USA). MCT was mixed in a 1:1 ratio with β-hydroxybutyrate mineral salt to obtain a ketone salt with MCT, and in a 1:1 ratio with 1,3-butanediol-acetoacetate diester to obtain […] with MCT.

[1] = system: glucose transporter type 1 (G1D)-deficient mice; assay: rotarod test, G1D mice; assay type: in vivo; settings: for motor performance on the rotarod test: 6 weeks of feeding
From the text: (§1) A group of 48 G1D mice, aged 2-5 months old, were fed for 10 weeks with either a standard rodent diet (SD), a ketogenic diet (KD), a standard diet supplemented with 10% ketone ester (SD+KE) or a standard diet supplemented with 20% ketone mineral salt (SD+KS).

[2] = system: glucose transporter type 1 (G1D)-deficient mice; assay: hanging wire test, G1D mice; assay type: in vivo; settings: fed for 10 weeks, FIG. 9
From the text: as §1

Row | Compound | motor function (accelerated rotarod) (WAG/Rij rats) | motor function (accelerating rotarod) compared to the control group (Sprague-Dawley rats) | time able to remain on the rotarod relative to controls fed a standard diet only (Sprague-Dawley rats) | motor performance on the rotarod test [1] | performance on the rotarod test vs baseline levels ([1]; by 4 weeks of feeding, FIG. 8) | course of improvement on the hanging wire test [2] | strength endurance (hanging wire test) [2] | motor function on the rotarod test ([1]; 10 weeks of feeding)
1 | CC(=O)CC(=O)OCCC(C)OC(=O)CC(C)=O (stereo not drawn) [ketone ester, 1,3-butanediol-acetoacetate diester] | not sufficient to improve motor function | improvement in motor function | able to remain on the rotarod for longer periods of time | increase in motor performance | significant increase in performance on the rotarod test |  |  | 
2 | β-hydroxybutyrate mineral salt [ketone salt] | not sufficient to improve motor function | improvement in motor function | able to remain on the rotarod for longer periods of time | increase in motor function |  | rapid improvement beginning at week 1 | improved | increase in motor function
